Laboratory results as given in ChEMBL document CHEMBL1122770, “Quantitative structure-activity relationship of insect juvenile hormone mimetic compounds” (J Med Chem, 1984).

Legend:
[1] = Partition coefficient (logP); assay type: physicochemical; conditions: octanol/water; read-out: logP
Tenebrio molitor [2] = assay: Tested for juvenile hormone mimetic activity in Tenebrio molitor (yellow mealworm) excluding from the analysis for activity against Aedes aegypti, Tenebrio molitor
Tenebrio molitor [3] = assay: Tested for juvenile hormone mimetic activity in Tenebrio molitor (yellow mealworm) excluding from the analysis for activity against Anopheles aegypti; assay type: functional
Tenebrio molitor [4] = assay: Tested for juvenile hormone mimetic activity in Tenebrio molitor (yellow mealworm) excluding from the analysis for activity against […]); assay type: functional
Tenebrio molitor [5] = assay: Tested for juvenile hormone mimetic activity in Tenebrio molitor (yellow mealworm) excluding from the analysis for activity against Tenebrio molitor; assay type: functional; design: unit not given here

SMILES	logP [1]	pI50 (Tenebrio molitor [2]) [uM pupa-1]	pI50 (Tenebrio molitor [3]) [uM pupa-1]	pI50 (Tenebrio molitor [4]) [uM pupa-1]	pI50 (Tenebrio molitor [5])
CC(/C=C/CC(C)CCCC(C)C)=C\C(=O)OC(C)(C)C (centres undefined)	7.56	1.01	–	–	–
CCNC(=O)/C=C(C)/C=C/CC(C)CCCC(C)(C)O (centres undefined)	3.15	–	5.22	–	–
CCOC(=O)/C=C(C)/C=C/CC(C)CCCC(C)(C)O (centres undefined)	4.65	–	–	~0.54	–
CC(/C=C/CC(C)CCCC(C)C)=C\C(=O)O (centres undefined)	5.95	–	–	–	<0.45
CCNC(=O)OC(C)(C)CCCC(C)C/C=C/C(C)=C/C(=O)OCC (centres undefined)	5.65	–	–	–	<0.55
CC(/C=C/CC(C)CCCC(C)C)=C\C(=O)C1N=N1 (centres undefined)	–	5.15	–	–	–
COC(C)(C)CCCC(C)C/C=C/C(C)=C/C(=O)C1N=N1 (centres undefined)	–	6.12	–	–	–
CC(/C=C/CC(C)CCCC(C)C)=C\C(=O)OCc1ccccc1 (centres undefined)	7.87	–	–	–	<0.52
